Experimental data published in ChEMBL document CHEMBL1134953, “Two selective novel triterpene glycosides from sea cucumber, Telenata Ananas: inhibitors of chemokine receptor-5” (Bioorg Med Chem Lett, 2002).

Target: C-C chemokine receptor type 5 (Homo sapiens, UniProt P51681)
Assay: Inhibitory activity against human CCR5 chemokine receptor (CCR5) expressed in CHO cells
Assay type: cell-based

Chain of C-C chemokine receptor type 5 (P51681 whole entry): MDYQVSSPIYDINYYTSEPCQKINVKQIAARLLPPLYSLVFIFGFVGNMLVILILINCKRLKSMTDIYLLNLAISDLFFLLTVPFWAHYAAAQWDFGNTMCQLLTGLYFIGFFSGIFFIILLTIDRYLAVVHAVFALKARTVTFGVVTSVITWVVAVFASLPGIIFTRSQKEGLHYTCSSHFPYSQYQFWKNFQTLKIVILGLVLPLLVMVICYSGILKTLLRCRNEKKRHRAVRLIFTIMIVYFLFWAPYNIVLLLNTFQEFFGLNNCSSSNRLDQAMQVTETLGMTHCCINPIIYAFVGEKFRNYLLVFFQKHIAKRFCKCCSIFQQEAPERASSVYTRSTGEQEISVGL

Structure (SMILES): COC1[C@@H](O)C(OC2[C@@H](O)[C@H](O[C@H]3[C@H](O)[C@@H](O)[C@H](O[C@H]4[C@H](O[C@H]5CC[C@]6(C)C7=C[C@H](O)C89C(=O)O[C@@](C)(CCCC(C)C)C8CC[C@@]9(C)C7CCC6C5(C)C)OC[C@@H](O[C@@H]5O[C@H](CO)[C@@H](O)[C@H](OC6O[C@H](CO)[C@@H](O)[C@H](OC)[C@H]6O)[C@H]5O)[C@@H]4O)O[C@@H]3C)O[C@H](CO)[C@H]2O)O[C@H](CO)[C@H]1O (some centres not stated)
- Ki: 5.1 µM

Structure (SMILES): C[C@H]1O[C@@H](O[C@H]2[C@H](O[C@H]3CC[C@]4(C)C5=C[C@H](O)C67C(=O)O[C@@](C)(C8CCC(C)(C)O8)[C@@]6(O)CC[C@@]7(C)C5CCC4C3(C)C)OC[C@@H](O[C@@H]3O[C@H](CO)[C@@H](O)[C@H](O)[C@H]3O)[C@@H]2O)[C@H](O)[C@@H](O)[C@@H]1O (some centres not stated)
- Ki: 30 µM
